{"source": "patent US20070167513A1", "about": "“Crystalline forms of duloxetine free base” (priority 2004, published 2007)", "key": {"[1]": {"conditions": "before exposure to heat or light"}, "[2]": {"conditions": "before exposure to heat or light, Hydrochloride"}, "[3]": {"conditions": "stress condition 45° C., Hydrochloride"}, "[4]": {"conditions": "stress condition 60° C., Hydrochloride"}, "[5]": {"conditions": "stress condition UV, Hydrochloride"}}, "note": "Counter-ions that a name gives are not always drawn. Like-named read-outs stand apart in the source and are kept apart here.", "data": [{"molecule": "CNCC[C@H](Oc1cccc2ccccc12)c1cccs1", "note": "[[…] (from prior art)] [Duloxetine Hydrochloride, reference compound]", "values": [{"measurement": "Description", "setting": "[1]", "value": "White powder"}, {"measurement": "SMI (single maximum impurity)", "setting": "[2]", "value": 0.20, "unit": "%"}, {"measurement": "Total imp", "setting": "[2]", "value": 0.48, "unit": "%"}, {"measurement": "Description", "setting": "[3]", "value": "Cream coloured"}, {"measurement": "SMI (single maximum impurity)", "setting": "[3]", "value": 0.19, "unit": "%"}, {"measurement": "Total imp", "setting": "[3]", "value": 0.65, "unit": "%"}, {"measurement": "Description", "setting": "[4]", "value": "Light pink"}, {"measurement": "SMI (single maximum impurity)", "setting": "[4]", "value": 0.19, "unit": "%"}, {"measurement": "Total imp", "setting": "[4]", "value": 0.70, "unit": "%"}, {"measurement": "Description", "setting": "[5]", "value": "Light brown"}, {"measurement": "SMI (single maximum impurity)", "setting": "[5]", "value": 0.19, "unit": "%"}, {"measurement": "Total imp", "setting": "[5]", "value": 0.66, "unit": "%"}]}, {"molecule": "CNCC[C@H](Oc1cccc2ccccc12)c1cccs1", "note": "[DULOXETINE HCI (from free base), Duloxetine Hydrochloride]", "values": [{"measurement": "Description", "setting": "[1]", "value": "White powder"}, {"measurement": "SMI (single maximum impurity)", "setting": "[2]", "value": 0.05, "unit": "%"}, {"measurement": "Total imp", "setting": "[2]", "value": 0.11, "unit": "%"}, {"measurement": "resistance to degradation", "setting": "compared with duloxetine hydrochloride prepared by conventional prior art methods", "value": "more resistant to degradation"}, {"measurement": "Description", "setting": "[3]", "value": "White powder"}, {"measurement": "SMI (single maximum impurity)", "setting": "[3]", "value": 0.07, "unit": "%"}, {"measurement": "Total imp", "setting": "[3]", "value": 0.12, "unit": "%"}, {"measurement": "Description", "setting": "[4]", "value": "White powder"}, {"measurement": "SMI (single maximum impurity)", "setting": "[4]", "value": 0.07, "unit": "%"}, {"measurement": "Total imp", "setting": "[4]", "value": 0.12, "unit": "%"}, {"measurement": "Description", "setting": "[5]", "value": "Cream"}, {"measurement": "SMI (single maximum impurity)", "setting": "[5]", "value": 0.06, "unit": "%"}, {"measurement": "Total imp", "setting": "[5]", "value": 0.11, "unit": "%"}]}]}
